Read-outs that look alike come from different tables or passages of the source.
Test: Biodistribution of 99mTc complexes in rats
Type: in vivo, Australian Albino Wistar Rats
Details: rat, rats; for tissue uptake at 0.5 min: 30 sec; for tissue uptake at 0.05 h: 3 min
Method: A typical method of radiolabelling of the chelator was achieved by dissolving the chelator in a basic solution of saline. The pH was then adjusted to approx. 6 with HCl. Excess stannous chloride was added to the resultant solution followed by one equivalent volume of sodium ^99m TcO4 (10-50 mCi/ml). Final concentration of the chelator was approx. 1 mg/ml. The efficacy of labelling was determined by ITLC-SG. For each product only one main radiochemical species was observed. Each complex was diluted to 15 μCi/100 μl with saline. […] (See FIGS. 1A and 1B).
Selected data from biodistribution results of technetium-99m complexes of No. 1, No. 2 and No 4 in the liver, kidney and blood at 3 minutes is tabulated below.

[1] = blood, read-out: biodistribution blood
[2] = bone, read-out: biodistribution bone
[3] = brain, read-out: biodistribution brain
[4] = eyes, read-out: biodistribution eyes
[5] = heart, read-out: biodistribution heart
[6] = kidneys, read-out: biodistribution kidneys
[7] = liver, read-out: biodistribution liver
[8] = lungs, read-out: biodistribution lungs
[9] = muscle, read-out: biodistribution muscle
[10] = pancreas, read-out: biodistribution pancreas
[11] = skin, read-out: biodistribution skin
[12] = spleen, read-out: biodistribution spleen
[13] = tail, read-out: biodistribution tail
[14] = thymus, read-out: biodistribution thymus
[15] = thyroid, read-out: biodistribution thyroid

O=C(O)CN(CCN(CC(=O)O)CC(=O)Nc1cc([N+](=O)[O-])ccc1O)CC(=O)Nc1cc([N+](=O)[O-])ccc1O [Compound 3]
tissue uptake at 0.5 min [1]: 2.1 %ID/g
tissue uptake at 1 min [1]: 1.83 %ID/g
tissue uptake at 0.05 h [1]: 1.37 %ID/g
tissue uptake at 5 min [1]: 1.17 %ID/g
tissue uptake at 10 min [1]: 0.86 %ID/g
tissue uptake at 0.5 min [2]: 0.3 %ID/g
tissue uptake at 1 min [2]: 0.29 %ID/g
tissue uptake at 0.05 h [2]: 0.3 %ID/g
tissue uptake at 5 min [2]: 0.29 %ID/g
tissue uptake at 10 min [2]: 0.22 %ID/g
tissue uptake at 0.5 min [3]: 0.18 %ID/g
tissue uptake at 1 min [3]: 0.14 %ID/g
tissue uptake at 0.05 h [3]: 0.09 %ID/g
tissue uptake at 5 min [3]: 0.08 %ID/g
tissue uptake at 10 min [3]: 0.05 %ID/g
tissue uptake at 0.5 min [4]: 0.2 %ID/g
tissue uptake at 1 min [4]: 0.23 %ID/g
tissue uptake at 0.05 h [4]: 0.23 %ID/g
tissue uptake at 5 min [4]: 0.17 %ID/g
tissue uptake at 10 min [4]: 0.18 %ID/g
tissue uptake at 0.5 min [5]: 0.78 %ID/g
tissue uptake at 1 min [5]: 0.65 %ID/g
tissue uptake at 0.05 h [5]: 0.55 %ID/g
tissue uptake at 5 min [5]: 0.45 %ID/g
tissue uptake at 10 min [5]: 0.34 %ID/g
tissue uptake at 0.5 min [6]: 3.92 %ID/g
tissue uptake at 1 min [6]: 4.63 %ID/g
tissue uptake at 0.05 h [6]: 4.27 %ID/g
tissue uptake at 5 min [6]: 3 %ID/g
tissue uptake at 10 min [6]: 2.1 %ID/g
tissue uptake at 0.5 min [7]: 1.43 %ID/g
tissue uptake at 1 min [7]: 1.61 %ID/g
tissue uptake at 0.05 h [7]: 1.61 %ID/g
tissue uptake at 5 min [7]: 1.24 %ID/g
tissue uptake at 10 min [7]: 0.92 %ID/g
tissue uptake at 0.5 min [8]: 1.24 %ID/g
tissue uptake at 1 min [8]: 1.04 %ID/g
tissue uptake at 0.05 h [8]: 0.87 %ID/g
tissue uptake at 5 min [8]: 0.72 %ID/g
tissue uptake at 10 min [8]: 0.57 %ID/g
tissue uptake at 0.5 min [9]: 0.26 %ID/g
tissue uptake at 1 min [9]: 0.24 %ID/g
tissue uptake at 0.05 h [9]: 0.23 %ID/g
tissue uptake at 5 min [9]: 0.21 %ID/g
tissue uptake at 10 min [9]: 0.22 %ID/g
tissue uptake at 0.5 min [10]: 0.47 %ID/g
tissue uptake at 1 min [10]: 0.41 %ID/g
tissue uptake at 0.05 h [10]: 0.38 %ID/g
tissue uptake at 5 min [10]: 0.42 %ID/g
tissue uptake at 10 min [10]: 0.21 %ID/g
tissue uptake at 0.5 min [11]: 0.49 %ID/g
tissue uptake at 1 min [11]: 0.43 %ID/g
tissue uptake at 0.05 h [11]: 0.58 %ID/g
tissue uptake at 5 min [11]: 0.64 %ID/g
tissue uptake at 10 min [11]: 0.63 %ID/g
tissue uptake at 0.5 min [12]: 0.49 %ID/g
tissue uptake at 1 min [12]: 0.42 %ID/g
tissue uptake at 0.05 h [12]: 0.29 %ID/g
tissue uptake at 5 min [12]: 0.23 %ID/g
tissue uptake at 10 min [12]: 0.17 %ID/g
tissue uptake at 0.5 min [13]: 0.85 %ID/g
tissue uptake at 1 min [13]: 2.43 %ID/g
tissue uptake at 0.05 h [13]: 0.63 %ID/g
tissue uptake at 5 min [13]: 0.84 %ID/g
tissue uptake at 10 min [13]: 0.84 %ID/g
tissue uptake at 0.5 min [14]: 0.38 %ID/g
tissue uptake at 1 min [14]: 0.34 %ID/g
tissue uptake at 0.05 h [14]: 0.32 %ID/g
tissue uptake at 5 min [14]: 0.25 %ID/g
tissue uptake at 10 min [14]: 0.2 %ID/g
tissue uptake at 0.5 min [15]: 1.11 %ID/g
tissue uptake at 1 min [15]: 1.14 %ID/g
tissue uptake at 0.05 h [15]: 0.92 %ID/g
tissue uptake at 5 min [15]: 0.7 %ID/g
tissue uptake at 10 min [15]: 0.63 %ID/g

Source: patent publication US5807535A, “Metal complexes of hydroxyaryl containing aminocarboxylic acid chelating agents” (Australian Nuclear Science & Technology Organisation, priority 1992, dated 1998)
